Results on one compound are retold here after US7531507B2, “Acylated nonadepsipeptides containing pyridyl alanine residues” (AiCuris GmbH & Co. KG, priority 2004, dated 2009).

Molecules are shown by their SMILES. In brackets after ≈: the same amount, converted by molar mass. Starred links: 1 amine or outer side, 2 acyl side, 3 side chain; linkers in the order of their positions; H or OH if unused. Positions of bridges follow the written chain, without caps; N, C: chain ends. Non-standard residues stand in square brackets, D forms with d. Residues, ends and D or L forms follow the SMILES beside them. Phe(3R-OH) = O=C([C@@H](N[*:1])[C@H](O[*:3])c1ccccc1)[*:2]; Asn(3S-OH) = NC(=O)[C@@H](O)[C@H](N)C(=O)O; Leu(3R-OH) = CC(C)[C@@H](O)[C@H](N)C(=O)O; aThr = C[C@H](O)[C@H](N)C(=O)O

The test system of data set [1] is Staphylococcus aureus 133. The class given is cell-based. The note with it: Isosensitest medium, 10^5 microbes per ml, 37° C., 18-24 hours. The method, then:
(§1) Determination of the Minimum Inhibitory Concentration (MIC):
(§2) The MIC is determined in the liquid dilution test in accordance with the NCCLS guidelines. Overnight cultures of Staphylococcus aureus 133, Enterococcus faecalis 27159, E. faecium 4147 and Streptococcus pneumoniae G9a are incubated with the described test substances in a 1:2 dilution series. The MIC determination is carried out with a cell count of 10^5 microbes per ml in Isosensitest medium (Difco, Irvine/USA), with the exception of S. pneumoniae which is tested in BHI broth (Difco, Irvine/USA) with 10% bovine serum with a cell count of 10^6 microbes per ml. The cultures are incubated at 37° C. for 18-24 hours, S. pneumoniae in the presence of 10% CO2.
(§3) The MIC is defined as the lowest concentration of each substance at which visible bacterial growth no longer occurs. The MIC values are reported in μg/ml.

The test system of data set [2] is Streptococcus pneumoniae G9a. Type of data set: cell-based. The note with it: BHI broth with 10% bovine serum, 10^6 microbes per ml, 37° C., 18-24 hours, 10% CO2. On the procedure:
as §1, §2, §3

The next data set relates to E. faecium L4001. The class given is cell-based, Enterococcus faecium. The conditions noted are these: Isosensitest medium, 10^5 microbes per ml, 37° C., 18-24 hours.
Another data set has as its system E. faecalis ICB 27159. The class given is cell-based, Enterococcus faecalis. The note with it: Isosensitest medium, 10^5 microbes per ml, 37° C., 18-24 hours. The method, then: as §1, §2, §3
Data set [3] is described as follows: Determination of the free fraction (fu) in plasma via Transil or ultrafiltration. The conditions noted are these: free fraction in rat plasma; read-out: fu (rat). The class given is in vitro ADME, rat. On the procedure: Principle of the Determination of the Free Fraction via Transil:
The method described herein for determining the free fraction (fu) of a test substance is divided into 2 parts:
a) Determination of the Transil®/buffer partitioning ratio (MAbuffer) by incubating the test substance in a Transil® buffer (pH 7.4) dispersion and subsequently determining the concentration in the dispersion and in the buffer supernatant.
b) Determination of the Transil®/plasma partitioning ratio (MAplasma) by incubating the test substance in a Transil® plasma dispersion and subsequently determining the concentration in the dispersion and in the plasma.
The quotient of the two partitioning ratios gives fu.
Where substances are highly protein-bound, the plasma is usually diluted with isotonic phosphate buffer (pH 7.4) and then suspended with Transil®. Determination of fu′ (free fraction in diluted plasma) in this diluted protein solution takes place in analogy to the determination of fu. The free fraction in undiluted plasma is calculated from fu′ and the dilution factor.
Concerning this method, compare also: Schuhmacher, Joachim; Kohlsdorfer, Christian; Buehner, Klaus; Brandenburger, Tim; Kruk, Renate, “High-throughput determination of the free fraction of drugs strongly bound to plasma proteins.” Journal of Pharmaceutical Sciences 2004, 93, 816-830.
Determination of the Membrane Affinity of a Test Substance After Partitioning Between Transil® and Buffer (MAbuffer):
All incubations are carried out in suitable glass vessels, e.g. glass vials, ground-joint test tubes. The total volume is usually 0.5-5 ml, and the Transil® volume is 10-100 μl. If the membrane affinities are expected to be high, the Transil® dispersion can be diluted up to 20 times with phosphate buffer of pH 7.4, e.g. Dulbecco's PBS. Phosphate buffer of pH 7.4 is introduced into the incubation vessels, and the Transil® is pipetted in after thorough mixing. The test substance is pipetted in at a concentration of, for example, 200 ng/ml, n=6. The proportion of organic solvents should be ≦2%. The mixtures are incubated at room temperature i.e. on a mini-shaker at an angle of about 45°, at about 400 rpm for 30 min. The 100% value is determined by taking at least one aliquot of, for example, 100 μl, and the remaining mixture is centrifuged at about 1800 g for about 10 min. […]
The plasma of the species to be investigated is filtered through a semipermeable membrane. The concentration of substance in the filtrate is measured, and the free fraction fU is calculated therefrom. […] The concentration of substance in the ultrafiltrate (Cu, unbound substance concentration) and in the plasma before centrifugation (C; total substance concentration) is measured. The free fraction is calculated by the formula fu (%)=Cu/C*100.

Take `CC[C@H](C)[C@@H]1NC(=O)[C@@H](CCCNC(=N)N)NC(=O)[C@H](CC(C)C)NC(=O)[C@H]([C@H](O)C(C)C)NC(=O)[C@@H](NC(=O)[C@H](CC(C)C)NC(=O)[C@H](N)CC(C)C)[C@@H](c2ccccc2)OC(=O)[C@H](CO)NC(=O)[C@H]([C@H](O)C(N)=O)NC(=O)CNC(=O)[C@H]([C@H](C)O)NC1=O` [Example 1A, D-Leucyl-N^1-4-{(3S,6S,12S,15S,18R,21S,24S,27S,28R)-6-[(1S)-2-amino-1-hydroxy-2-oxoethyl]-18-(3-{[amino(imino)methyl]amino}propyl)-12-[(1S)-1-hydroxyethyl]-3-(hydroxymethyl)-24-[(1R)-1-hydroxy-2-methylpropyl]-21-isobutyl-15-[(1S)-1-methylpropyl]-2,5,8,11,14,17,20,23,26-nonaoxo-28-phenyl-1-oxa-4,7,10,13,16,19,22,25-octaazacyclooctacosan-27-yl}-L-leucinamide bistrifluoroacetate (lysobactin), reference compound] (H-[dL]L[Phe(3R-OH)][Leu(3R-OH)]L[dR]I[aThr]G[Asn(3S-OH)]S; ester 3-C): the “MIC S. aureus 133” value in data set [1] stood at 0.5 µg/mL (≈ 0.392 µM). The “MIC S. pneumoniae G9a” value in data set [2] worked out at 0.063 µg/mL (≈ 0.0494 µM). The “MIC E. faecium L4001” value with E. faecium L4001 was determined as 0.5 µg/mL (≈ 0.392 µM). For the same compound, the “MIC E. faecalis ICB 27159” value against E. faecalis ICB 27159 amounted to 0.5 µg/mL (≈ 0.392 µM). Besides, in data set [3], the fraction unbound at 30 min was determined as 0.0067.
